Test system: blood brain barrier (BBB); brain, cerebellum
Assay: Biodistribution of [18F]-AuNP in rats by small animal micro-PET
Format: in vivo, SD (Sprague-Dawley) rats
Settings: healthy rats, intravenous injection, micro-PET brain scan
Protocol: To evaluate the bio-distribution of the AuNPs, [^18F] SiFA-AuNP (12 MBq) were injected into healthy rats (n=3) and evaluated by micro-PET. Representative body and brain scan images of a micro-PET scan following intravenous injection of a solution of [^18F]-SiFA-AuNP are illustrated in FIG. 8. Radioactivity was found in the kidney, liver and spleen.
The time-activity curves obtained from the PET images depicting the radioactivity uptake in the cerebellum and the brain (n=3), using bone radioactivity as a region of reference, are illustrated in FIG. 9 These curves illustrate that AuNPs start to accumulate in the cerebellum and brain at 25-120 min. Ex vivo biodistribution studies were also carried out to confirm the bio-distribution data of [^18F]-SiFA-AuNP in different organs 2 h following injection as obtained by micro-PET. The biodistribution data is illustrated in FIG. 10 and is expressed as the percentage of injected dose for each gram of tissue (% ID/g). […]
Biodistribution of [^18F]-AuNP in Rats by small animal PET: SD (Sprague-Dawley) Rats for in vivo PET studies were housed in a 12 h light/dark cycle at 21° C. with access to food and water ad libitum. […] Respiration rate, heart rate and body temperature were monitored throughout the scan (Biopac sytems MP150, Goleta, Calif., USA). […] The PET images were analyzed using ASIPRO software (Concorde Microsystems). […]

CC(C)(C)[Si](F)(c1ccc(S)cc1)C(C)(C)C [[^18F]-SiFA-SH, ^18F-labeled 4-(di-tert-butylfluorosilanyl)benzenethiol]
crossing of the blood brain barrier (BBB): does not cross the BBB

— patent US20140186263A1, “MALEIMIDE-FUNC[…] NANOPARTICLES” (THE ROYAL INSTITUTION FOR THE ADVANCEMENT OF …, priority 2011, published 2014)
